According to PubChem BioAssay (NCI):
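Growth conditions: 96-well plates. Treatment: test compound, 48 hours, 5 concentrations. Analysis: linear interpolation between bracketing concentrations; unreached endpoints set to highest concentration. TGI marks complete inhibition of growth.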

Assays:
Assay in all cases: DTP human tumour cell line panel, 48 h
OVCAR-3 ovarian = tested on: OVCAR-3 ovarian
SNB-75 CNS = tested on: SNB-75 CNS
KM20L2 colon = tested on: KM20L2 colon
COLO 205 colon = tested on: COLO 205 colon
CCRF-CEM leukemia = tested on: CCRF-CEM leukemia
HCT-15 colon = tested on: HCT-15 colon
SK-MEL-2 melanoma = tested on: SK-MEL-2 melanoma
SNB-78 CNS = tested on: SNB-78 CNS
SNB-19 CNS = tested on: SNB-19 CNS
HL-60(TB) leukemia = tested on: HL-60(TB) leukemia
786-0 renal = tested on: 786-0 renal
LXFL 529 NSCLC = tested on: LXFL 529 NSCLC
KM12 colon = tested on: KM12 colon
SK-MEL-5 melanoma = tested on: SK-MEL-5 melanoma
K-562 leukemia = tested on: K-562 leukemia
SF-295 CNS = tested on: SF-295 CNS
XF 498 CNS = tested on: XF 498 CNS
LOX IMVI melanoma = tested on: LOX IMVI melanoma
HT29 colon = tested on: HT29 colon
M14 melanoma = tested on: M14 melanoma
DMS 273 small cell lung = tested on: DMS 273 small cell lung
UACC-62 melanoma = tested on: UACC-62 melanoma
IGROV1 ovarian = tested on: IGROV1 ovarian
HOP-18 NSCLC = tested on: HOP-18 NSCLC
HCT-116 colon = tested on: HCT-116 colon
NCI-H460 lung = tested on: NCI-H460 lung
UO-31 renal = tested on: UO-31 renal
U251 CNS = tested on: U251 CNS
NCI-H23 lung = tested on: NCI-H23 lung
OVCAR-4 ovarian = tested on: OVCAR-4 ovarian
M19-MEL melanoma = tested on: M19-MEL melanoma
RXF 393 renal = tested on: RXF 393 renal
UACC-257 melanoma = tested on: UACC-257 melanoma
RPMI-8226 leukemia = tested on: RPMI-8226 leukemia
HCC-2998 colon = tested on: HCC-2998 colon
SR leukemia = tested on: SR leukemia
ACHN renal = tested on: ACHN renal
NCI-H522 lung = tested on: NCI-H522 lung
A549 NSCLC = tested on: A549 NSCLC
OVCAR-8 ovarian = tested on: OVCAR-8 ovarian
MOLT-4 leukemia = tested on: MOLT-4 leukemia
SK-OV-3 ovarian = tested on: SK-OV-3 ovarian
OVCAR-5 ovarian = tested on: OVCAR-5 ovarian
EKVX NSCLC = tested on: EKVX NSCLC
SN12C renal = tested on: SN12C renal
HOP-92 NSCLC = tested on: HOP-92 NSCLC
SW-620 colon = tested on: SW-620 colon
SK-MEL-28 melanoma = tested on: SK-MEL-28 melanoma
MALME-3M melanoma = tested on: MALME-3M melanoma
TK-10 renal = tested on: TK-10 renal
DMS 114 small cell lung = tested on: DMS 114 small cell lung
NCI-H226 lung = tested on: NCI-H226 lung
CAKI-1 renal = tested on: CAKI-1 renal
A498 renal = tested on: A498 renal
SF-539 CNS = tested on: SF-539 CNS
DLD-1 colon = tested on: DLD-1 colon
RXF-631 renal = tested on: RXF-631 renal

COC(=O)C1CSC(c2csc(CCN)n2)=N1 (stereo unspecified)
TGI (OVCAR-3 ovarian): > 100 µM | TGI (SNB-75 CNS): > 100 µM | TGI (KM20L2 colon): > 100 µM | TGI (COLO 205 colon): > 100 µM | TGI (CCRF-CEM leukemia): > 100 µM | TGI (HCT-15 colon): > 100 µM | TGI (SK-MEL-2 melanoma): > 100 µM | TGI (SNB-78 CNS): > 100 µM | TGI (SNB-19 CNS): > 100 µM | TGI (HL-60(TB) leukemia): > 100 µM | TGI (786-0 renal): > 100 µM | TGI (LXFL 529 NSCLC): > 100 µM | TGI (KM12 colon): > 100 µM | TGI (SK-MEL-5 melanoma): > 100 µM | TGI (K-562 leukemia): > 100 µM | TGI (SF-295 CNS): > 100 µM | TGI (XF 498 CNS): > 100 µM | TGI (LOX IMVI melanoma): > 100 µM | TGI (HT29 colon): > 100 µM | TGI (M14 melanoma): > 100 µM | TGI (DMS 273 small cell lung): > 100 µM | TGI (UACC-62 melanoma): > 100 µM | TGI (IGROV1 ovarian): > 100 µM | TGI (HOP-18 NSCLC): > 100 µM | TGI (HCT-116 colon): > 100 µM | TGI (NCI-H460 lung): > 100 µM | TGI (UO-31 renal): > 100 µM | TGI (U251 CNS): > 100 µM | TGI (NCI-H23 lung): > 100 µM | TGI (OVCAR-4 ovarian): > 100 µM | TGI (M19-MEL melanoma): > 100 µM | TGI (RXF 393 renal): > 100 µM | TGI (UACC-257 melanoma): > 100 µM | TGI (RPMI-8226 leukemia): > 100 µM | TGI (HCC-2998 colon): > 100 µM | TGI (SR leukemia): > 100 µM | TGI (ACHN renal): > 100 µM | TGI (NCI-H522 lung): > 100 µM | TGI (A549 NSCLC): > 100 µM | TGI (OVCAR-8 ovarian): > 100 µM | TGI (MOLT-4 leukemia): > 100 µM | TGI (SK-OV-3 ovarian): > 100 µM | TGI (OVCAR-5 ovarian): > 100 µM | TGI (EKVX NSCLC): > 100 µM | TGI (SN12C renal): > 100 µM | TGI (HOP-92 NSCLC): > 100 µM | TGI (SW-620 colon): > 100 µM | TGI (SK-MEL-28 melanoma): > 100 µM | TGI (MALME-3M melanoma): > 100 µM | TGI (TK-10 renal): > 100 µM | TGI (DMS 114 small cell lung): > 100 µM | TGI (NCI-H226 lung): > 100 µM | TGI (CAKI-1 renal): > 100 µM

COC(=O)Cc1c([C@@]2(C)CCCC(C)(C)C2)ccc2c1C(=O)OC2
TGI (OVCAR-3 ovarian): 20.7 µM | TGI (SNB-75 CNS): 28.7 µM | TGI (COLO 205 colon): 26.4 µM | TGI (CCRF-CEM leukemia): 22.2 µM | TGI (HCT-15 colon): 24.1 µM | TGI (SNB-78 CNS): 37.3 µM | TGI (HL-60(TB) leukemia): 13.3 µM | TGI (786-0 renal): 30.8 µM | TGI (LXFL 529 NSCLC): 27.2 µM | TGI (A498 renal): 41.8 µM | TGI (KM12 colon): 30.6 µM | TGI (SK-MEL-5 melanoma): 25.6 µM | TGI (K-562 leukemia): 19.4 µM | TGI (SF-295 CNS): 26.1 µM | TGI (SF-539 CNS): 31.6 µM | TGI (LOX IMVI melanoma): 24.2 µM | TGI (HT29 colon): 28.4 µM | TGI (M14 melanoma): 26.1 µM | TGI (DLD-1 colon): 12.2 µM | TGI (DMS 273 small cell lung): 21 µM | TGI (UACC-62 melanoma): 31.4 µM | TGI (IGROV1 ovarian): 47.5 µM | TGI (HOP-18 NSCLC): 47.1 µM | TGI (HCT-116 colon): 22 µM | TGI (NCI-H460 lung): 33.3 µM | TGI (UO-31 renal): 15.3 µM | TGI (U251 CNS): 29.7 µM | TGI (NCI-H23 lung): 34.6 µM | TGI (M19-MEL melanoma): 69.6 µM | TGI (RXF 393 renal): 27.9 µM | TGI (UACC-257 melanoma): 22.8 µM | TGI (RPMI-8226 leukemia): 14.6 µM | TGI (ACHN renal): 48.2 µM | TGI (NCI-H522 lung): 19.8 µM | TGI (A549 NSCLC): 32.4 µM | TGI (OVCAR-8 ovarian): > 100 µM | TGI (MOLT-4 leukemia): 18.2 µM | TGI (SK-OV-3 ovarian): 32.3 µM | TGI (RXF-631 renal): 29.4 µM | TGI (EKVX NSCLC): 59.7 µM | TGI (SN12C renal): 23 µM | TGI (HOP-92 NSCLC): 8.38 µM | TGI (SW-620 colon): > 100 µM | TGI (SK-MEL-28 melanoma): 34.9 µM | TGI (MALME-3M melanoma): 38 µM | TGI (TK-10 renal): 59.3 µM | TGI (DMS 114 small cell lung): 20.4 µM | TGI (NCI-H226 lung): 28.4 µM
